In patent US6471958B2, “Non-contracting tissue equivalent” (University of North Texas Health Science Center, priority 1998, dated 2002):
Like-named read-outs stand apart in the source and are kept apart here.

Legend:
[1] = system: normal human skin fibroblasts
Protocol: Dermal fibroblasts were obtained as outgrowths from explanted dermal tissue, after incubation at 37° C. 5% CO2 97% humidity) in DMEM containing 10% FBS. The cells were harvested with 0.05% trypsin, 0.02% EDTA, and passaged in their respective media or used for construction of dermal and skin equivalents. For experimental treatments the cells were plated into 25 cm tissue culture flasks (T-25), 6 well tissue culture (TC) plates (9.6 cm^2/well), or 4 well TC plates (2 cm^2/well).
(§2) The cells, DEs, or tissue equivalent products, contained in TC plates, were transferred into the treatment chamber, the lids were removed, and the TC plates covered with sterile gauze. […] The treatment pressure was maintained for 90 minutes. At the conclusion, decompression was carried out slowly over a five-minute period, and the treated cultures returned to the CO2 incubator. The treatments were repeated for 2, 5, or 10 consecutive days, and a normal medium change schedule was maintained.
(§3) The cells and equivalents were incubated in 1 ml of neutral red solution (1 mg/ml in appropriate media) for 4 hours at 37° C. The effects on the cells (fibroblasts/keratinocytes) were evaluated microscopically and photographically recorded. The entry of neutral red into the cells signified that they were viable.

[2] = system: normal human keratinocyte monolayers; conditions: periodic HBO treatment
Protocol: (§1) The cells, DEs, or tissue equivalent products, contained in TC plates, were transferred into the treatment chamber, the lids were removed, and the TC plates covered with sterile gauze. The treatment chamber was sealed, the oxygen (100%) was blown through slowly to expel all the air (2 min.), and the chamber brought up to the appropriate pressure over a period of five minutes. The treatment pressure was maintained for 90 minutes. At the conclusion, decompression was carried out slowly over a five-minute period, and the treated cultures returned to the CO2 incubator. The treatments were repeated for 2, 5, or 10 consecutive days, and a normal medium change schedule was maintained.

[3] = system: normal human dermal fibroblasts monolayers; conditions: for cell proliferation (cell numbers): 90 min./day for ten days
Protocol: as §1

[4] = system: human skin equivalent product; conditions: 90 minutes/day for 10 days
Protocol: as §1

[5] = system: normal human dermal fibroblasts
Protocol: Collagen production by near confluent monolayer of dermal fibroblasts was determined by measuring the incorporation of tritiated proline [3H-proline] into bacterial collagenase-sensitive protein [Postlethwaite et al., Proc. Nat. Acad. Sci. (USA) 75:871-875 (1978)] using an extensively modified method of Peterkofsky and Diegelmann, Developmental Biology 28:443-453 (1972). The wells of a six well TC plate (Falcon 3008) were seeded with 5×10^5 fibroblasts and were cultured in DMEM containing 5% FBS for 72 hr at 37° C. (humidified 5% CO2 incubator). The medium was then replaced with serum free DMEM lacking in nonessential amino acids (500 ml), and containing 5 μC L-proline[2,3-3H] (20 Ci/mM, NEN, Boston, Mass.), and the hyperbaric treatments initiated. After 48 and 120 hours, two aliquots (200 ml) of culture supernatant were removed from each well. One aliquot was used to quantitate total protein production as follows: supernatant (200 ml) was added to 0.2 M Tris/0.3 M CaCl2 buffer (pH 7.5, 70 ml), FBS (25 ml),N-ethylmaleimide (NEM, 30 ml), and a 0.75% solution of tannic acid (TA) in 50% trichloroacetic acid 9TCA) (75 ml). […] The filters, placed in scintillation vials containing 5 ml Aquasol (New England Nuclear), were chilled for 4 hr, and counted in a liquid scintillation counter.
The second aliquot of was used to quantitate the noncollagen protein as follows: supernatant (200 ml) was added to 0.2 M Tris/0.3 M CaCl2 buffer (pH 7.5, 50 ml), NEM (30 ml) and bacterial collagenase (20 ml) (Worthington Biochemical Corp., Freehold, N.J.), purified just before use by gel filtration on Sephadex G-200 to remove proteinases. […] The precipitate was collected on glass fiber filters, and the radioactivity was measured by scintillation counting.
De novo synthesized collagen by each fibroblast culture was determined by substracting the noncollagen protein from the total proteins synthesized. Samples were assaved in quadruplicate or triplicate and the data are expressed as mean epm (+SEM) and/or percent of collagen produced relative to control cultures. […]

HUSE Product = conditions: for OUTCOME (neutral red viability): HUSE Product, 90 min/day for 10 days
Protocol: Dermal equivalents, cast in 12 well tissue culture plates, were coated with collagen VII (Collaborative Research; 12 mg collagen/cm^2). Early passage keratinocytes (1.8×10^5cells/cm^2), suspended in KGM (2 mls) were then plated onto DE. The medium was changed after 24 hours, and thereafter at 48 hour intervals. Once a confluent monolayer was formed, the DE were transferred to a wire mesh grids, elevated to the air-liquid interface, and the media was changed to modified KGM containing 1.8 mM CaCl2; once lifted (“lift date” was “Day 0”) the system was considered to be a “developing HUSE product”. The “epidermis” remained at the air-liquid interface and differentiated for the duration of the experiment, the media being changed every 3 days. The HUSE product was considered mature after 14 days of differentiation.
as §2, §3

[6] = system: Fibroblasts in Dermal Eq. Submerged; conditions: 90 min/day for 10 days
Protocol: (§4) Dermal equivalents were constructed at 4° C. by mixing 8 parts collagen (Type I acid solubilized, ICN Cellagen®; 3 mg/ml), 1 part of 10×Ham's F-12 medium, 1 part buffer (200 mM HEPES, 25 mM Na2CO3 and 50 mMN NaOH) and inoculating with dermal fibroblasts (1×10^5 cells/ml at 4° C.). For experimental treatments DE were cast in 4 or 12 well tissue culture plates and were maintained at 37° C. in Ham's F-12 Medium containing 5% FBS. Fibroblasts regained their normal morphology within 48 hours, after which DE were maintained in modified Ham's F-12 Medium, changing the media every 48 hours.
as §2, §3

[7] = system: Fibroblasts in Dermal Eq. on Grids; conditions: 90 min/day for 10 days
Protocol: as §4, §2, §3

[8] = 90 minutes, DMEM, KBM
Protocol: A method similar to that described by Rafi et al., Am. J. Med. Genetics 61:299-303 […] was used to measure the partial pressure of oxygen (pO2) dissolved in the culture medium bathing the cells. To each well of a multiwell tissue culture (TC) plate was added the appropriate culture medium to a depth of 2 mm. The TC plates were then placed in the treatment chamber, the chamber was flushed out with oxygen for five minutes and then pressurized over an additional five minute period. The pressure was maintained for 90 minutes after which time period the treatment chamber was decompressed over a period of five minutes. The TC plates were then removed from the chamber and the pO2 measurement taken within two minutes using a polarographic oxygen electrode (Diamond General Development Corporation, Ann Arbor, Mich.). Dissolution of oxygen at four different pressures was measured in three different media.

[9] = system: normal human keratinocytes; conditions: for OUTCOME (neutral red viability): Keratinocytes, Continuous 12 hrs or 90 min/day for 10 days
Protocol: Human skin pieces (5 cm squares) were incubated at 4° C. in a solution of 20U/ml dispase (Collaborative Research; 5 mg collagen/cm2) in KGM (Keratinocyte Growth Medium, Clonetics Corp.), for 48 hours. The epidermis was separated from the dermis and dispersed in a solution containing 0.025% trypsin and 0.02% EDTA, by incubation at 37° C. and vigorous pipetting, to produce a single cell suspension. The resulting keratinocytes were then plated into tissue culture flasks coated with collagen VII, and cultured in KGM, a serum free defined medium at 37° C. (5% CO2, 97% humidity). […] The cells were harvested with 0.05% trypsin, 0.02% EDTA, and passaged in their respective media or used for construction of dermal and skin equivalents. For experimental treatments the cells were plated into 25 cm tissue culture flasks (T-25), 6 well tissue culture (TC) plates (9.6 cm^2/well), or 4 well TC plates (2 cm^2/well).
as §2, §3

O=O [100% O2, oxygen]
OUTCOME (neutral red viability) ([1]; 3 hrs/day for 5 days, 320 mm Hg): Non-Toxic
OUTCOME (neutral red viability) ([1]; 3 hrs/day for 5 days, 480 mm Hg): Non-Toxic
OUTCOME (neutral red viability) ([1]; 3 hrs/day for 5 days, 760 mm Hg): Non-Toxic
OUTCOME (neutral red viability) ([1]; Continuous 12 hrs, 760 mm Hg): Non-Toxic
OUTCOME (neutral red viability) ([1]; Continuous 12 hrs, 1520 mm Hg): Some Toxicity
OUTCOME (neutral red viability) ([1]; Continuous 12 hrs, 1520 mm Hg, listed as 100% oxygen): some toxicity
OUTCOME (neutral red viability) ([1]; Continuous 12 hrs, 2280 mm Hg): Some Toxicity
OUTCOME (neutral red viability) ([1]; Continuous 12 hrs, 2280 mm Hg, listed as 100% oxygen): some toxicity
cell number ([2]; 1 atm.): consistently indistinguishable from the controls
cell number ([2]; 2 atm.): not as mitotic as the latter
cell number ([2]; 2.5 atm.): not as mitotic as the latter
cell number ([2]; 3 atm.): a constant number of cells, well below the numbers obtained in other treatments
cell proliferation (cell numbers) ([3]; 1 atm. Donor): Stimulation of cell proliferation
cell proliferation (cell numbers) ([3]; 2.5 atm. Donor): Stimulation of cell proliferation
cell proliferation (cell numbers) ([3]; 3 atm, donor): consistently non-stimulating and perhaps marginally anti-mitotic
effect on fibroblast mitosis ([3]; oxygen pressures above about three atmospheres): antimitotic
cornification of the epidermal layer [4]: particularly stimulated
epidermal thickness ([4]; 1 and 2 atm of 100% oxygen, vs untreated control): progressive increase in epidermal thickness
collagen synthesis ([5]; 1 atmosphere, after two days of treatment): elevated
levels of collagen synthesis ([5]; five days vs two days of treatment, all pressure levels): higher after five days of treatment than after two days
collagen synthesis ([5]; with increased HBO): inhibition of collagen synthesis
OUTCOME (neutral red viability) (HUSE Product; 760 mm Hg): Non-Toxic
OUTCOME (neutral red viability) (HUSE Product; 1520 mm Hg): Non-Toxic
OUTCOME (neutral red viability) (HUSE Product; 2280 mm Hg): Non-Toxic
adverse effect on developing HUSE products (HUSE Product; up to 3 atmospheres): not adversely affected
OUTCOME (neutral red viability) ([6]; 760 mm Hg): Non-Toxic
OUTCOME (neutral red viability) ([6]; 1520 mm Hg): Non-Toxic
OUTCOME (neutral red viability) ([6]; 2280 mm Hg): Non-Toxic
OUTCOME (neutral red viability) ([7]; 760 mm Hg): Non-Toxic
OUTCOME (neutral red viability) ([7]; 1520 mm Hg): Some Toxicity
OUTCOME (neutral red viability) ([7]; 2280 mm Hg): Some Toxicity
MEASURED pO2 (Mean of three readings) ([8]; applied O2 pressure 1 atm. - 760 mm Hg, KGM): 316 mm Hg
MEASURED pO2 (Mean of three readings) ([8]; applied O2 pressure 2 atm. - 1520 mm Hg, KGM): 800 mm Hg
MEASURED pO2 (Mean of three readings) ([8]; applied O2 pressure 2.5 atm. - 1900 mm Hg, KGH): 941 mm Hg
MEASURED pO2 (Mean of three readings) ([8]; applied O2 pressure 3 atm. - 2280 mm Hg, KGM): 1215 mm Hg
OUTCOME (neutral red viability) ([9]; 760 mm Hg): Non-Toxic
OUTCOME (neutral red viability) ([9]; 1520 mm Hg): Non-Toxic
OUTCOME (neutral red viability) ([9]; 2280 mm Hg): Non-Toxic
toxicity ([9]; keratinocyte monolayer cultures, any pressure): No toxicity
